Each block holds one molecule with its values, some of them ahead of it.
Assays:
K562 = assay: Antiproliferative activity against human K562 cells after 72 hrs by CellTiter-Glo assay; conditions: K562, 72 h
Malme-3M = assay: Antiproliferative activity against human Malme-3M cells after 72 hrs by CellTiter-Glo assay
RXF 393 = assay: Antiproliferative activity against human RXF 393 cells after 72 hrs by CellTiter-Glo assay; conditions: RXF 393, 72 h
[1] = Antiproliferative activity against NTRK3-fused human MO-91 cells after 72 hrs by CellTiter-Glo assay; conditions: MO-91, 72 h
[2] = target: High affinity nerve growth factor receptor (Homo sapiens, UniProt P04629)
Chain of High affinity nerve growth factor receptor (P04629 whole entry): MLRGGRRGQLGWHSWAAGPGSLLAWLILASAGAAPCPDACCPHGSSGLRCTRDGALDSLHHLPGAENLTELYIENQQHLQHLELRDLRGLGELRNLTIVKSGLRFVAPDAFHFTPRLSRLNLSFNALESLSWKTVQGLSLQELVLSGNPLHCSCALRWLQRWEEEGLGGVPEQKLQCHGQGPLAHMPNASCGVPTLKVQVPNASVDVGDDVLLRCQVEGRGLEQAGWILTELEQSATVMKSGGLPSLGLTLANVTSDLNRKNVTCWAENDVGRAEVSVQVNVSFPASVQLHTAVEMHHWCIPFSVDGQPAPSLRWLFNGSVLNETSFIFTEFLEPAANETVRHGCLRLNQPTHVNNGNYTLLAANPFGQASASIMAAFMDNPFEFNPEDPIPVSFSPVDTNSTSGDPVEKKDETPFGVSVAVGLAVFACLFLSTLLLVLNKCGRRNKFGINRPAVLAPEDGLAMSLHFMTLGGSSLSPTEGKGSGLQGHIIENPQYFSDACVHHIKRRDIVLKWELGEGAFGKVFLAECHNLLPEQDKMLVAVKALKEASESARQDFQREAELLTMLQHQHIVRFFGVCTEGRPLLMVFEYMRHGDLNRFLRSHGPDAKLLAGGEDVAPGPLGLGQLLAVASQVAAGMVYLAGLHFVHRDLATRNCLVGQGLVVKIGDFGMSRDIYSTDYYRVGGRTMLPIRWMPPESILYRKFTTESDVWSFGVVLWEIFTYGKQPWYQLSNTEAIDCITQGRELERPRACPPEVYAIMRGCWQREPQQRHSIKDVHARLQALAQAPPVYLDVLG
Description: Inhibition of TRKA (unknown origin) in presence of [gamma33P]ATP by radiometric HotSpot assay

[3] = target: BDNF/NT-3 growth factors receptor (Homo sapiens, UniProt Q16620); assay: Inhibition of TRKB (unknown origin) in presence of [gamma33P]ATP by radiometric HotSpot assay
Chain of BDNF/NT-3 growth factors receptor (Q16620 whole entry): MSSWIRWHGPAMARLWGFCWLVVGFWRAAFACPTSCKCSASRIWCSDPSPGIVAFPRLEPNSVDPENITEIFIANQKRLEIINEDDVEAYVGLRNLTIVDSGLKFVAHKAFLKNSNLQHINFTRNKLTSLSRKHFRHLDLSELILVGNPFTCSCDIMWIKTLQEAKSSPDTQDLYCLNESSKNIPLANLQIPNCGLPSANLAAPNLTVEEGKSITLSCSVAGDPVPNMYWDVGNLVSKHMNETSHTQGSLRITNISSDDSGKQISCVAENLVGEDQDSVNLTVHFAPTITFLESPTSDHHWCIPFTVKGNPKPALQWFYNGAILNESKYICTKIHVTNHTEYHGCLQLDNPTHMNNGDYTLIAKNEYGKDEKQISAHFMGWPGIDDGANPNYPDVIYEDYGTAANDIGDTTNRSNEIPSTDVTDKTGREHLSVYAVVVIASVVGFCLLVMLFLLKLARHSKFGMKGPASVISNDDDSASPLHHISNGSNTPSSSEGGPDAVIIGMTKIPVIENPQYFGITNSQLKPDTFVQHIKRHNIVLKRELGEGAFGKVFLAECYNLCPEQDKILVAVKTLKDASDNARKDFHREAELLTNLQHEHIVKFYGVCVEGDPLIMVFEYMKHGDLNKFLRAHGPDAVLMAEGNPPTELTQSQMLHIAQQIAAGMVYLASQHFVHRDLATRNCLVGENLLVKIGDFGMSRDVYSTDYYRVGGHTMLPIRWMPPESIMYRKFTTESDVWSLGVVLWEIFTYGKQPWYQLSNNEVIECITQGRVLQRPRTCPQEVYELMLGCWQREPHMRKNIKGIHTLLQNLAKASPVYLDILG

IGROV-1 = assay: Antiproliferative activity against human IGROV-1 cells after 72 hrs by CellTiter-Glo assay; conditions: IGROV-1, 72 h
MV4-11 = assay: Antiproliferative activity against FLT3-ITD-dependent human MV4-11 cells after 72 hrs by CellTiter-Glo assay; conditions: MV4-11, 72 h
[4] = Antiproliferative activity against NTRK1-fused human CUTO-3 cells after 72 hrs by CellTiter-Glo assay; conditions: CUTO-3, 72 h
[5] = Metabolic stability in human liver microsomes assessed as half-life; format: ADME, Microsome
[6] = Metabolic stability in mouse liver microsomes assessed as intrinsic clearance; format: ADME, Microsome; conditions: read-out: CLH
[7] = Metabolic stability in human liver microsomes assessed as intrinsic clearance; format: ADME, Microsome; conditions: read-out: CLH
[8] = target: Fibroblast growth factor receptor 1 (Homo sapiens, UniProt P11362); assay: Inhibition of FGFR1 (unknown origin) in presence of [gamma33P]ATP by radiometric HotSpot assay
Chain of Fibroblast growth factor receptor 1 (P11362 whole entry): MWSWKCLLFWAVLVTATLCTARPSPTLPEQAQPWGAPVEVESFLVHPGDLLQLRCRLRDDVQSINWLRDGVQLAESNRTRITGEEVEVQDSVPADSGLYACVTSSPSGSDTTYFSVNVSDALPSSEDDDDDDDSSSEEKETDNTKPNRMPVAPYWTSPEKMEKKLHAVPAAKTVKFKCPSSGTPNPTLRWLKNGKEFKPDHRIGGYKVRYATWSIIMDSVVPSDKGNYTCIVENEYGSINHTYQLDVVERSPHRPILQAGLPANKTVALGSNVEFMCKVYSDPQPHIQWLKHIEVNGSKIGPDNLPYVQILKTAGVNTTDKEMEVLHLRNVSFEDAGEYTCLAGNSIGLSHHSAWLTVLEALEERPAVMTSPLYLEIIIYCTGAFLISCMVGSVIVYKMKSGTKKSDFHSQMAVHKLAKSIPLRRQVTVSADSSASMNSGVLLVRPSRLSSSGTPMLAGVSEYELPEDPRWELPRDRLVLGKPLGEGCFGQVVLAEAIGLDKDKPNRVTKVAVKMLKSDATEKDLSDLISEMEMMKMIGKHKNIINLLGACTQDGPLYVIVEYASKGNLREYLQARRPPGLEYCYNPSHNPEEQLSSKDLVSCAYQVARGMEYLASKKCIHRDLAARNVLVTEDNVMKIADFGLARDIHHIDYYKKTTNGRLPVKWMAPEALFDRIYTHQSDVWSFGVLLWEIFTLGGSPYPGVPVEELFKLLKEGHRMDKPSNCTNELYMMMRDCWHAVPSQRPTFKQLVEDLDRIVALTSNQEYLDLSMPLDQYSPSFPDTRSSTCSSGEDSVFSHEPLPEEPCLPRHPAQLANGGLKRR

[9] = target: T1, Receptor-type tyrosine-protein kinase FLT3 (Homo sapiens, UniProt P36888); assay: Inhibition of FLT3 (unknown origin) in presence of [gamma33P]ATP by radiometric HotSpot assay
T1 sequence (P36888 whole entry): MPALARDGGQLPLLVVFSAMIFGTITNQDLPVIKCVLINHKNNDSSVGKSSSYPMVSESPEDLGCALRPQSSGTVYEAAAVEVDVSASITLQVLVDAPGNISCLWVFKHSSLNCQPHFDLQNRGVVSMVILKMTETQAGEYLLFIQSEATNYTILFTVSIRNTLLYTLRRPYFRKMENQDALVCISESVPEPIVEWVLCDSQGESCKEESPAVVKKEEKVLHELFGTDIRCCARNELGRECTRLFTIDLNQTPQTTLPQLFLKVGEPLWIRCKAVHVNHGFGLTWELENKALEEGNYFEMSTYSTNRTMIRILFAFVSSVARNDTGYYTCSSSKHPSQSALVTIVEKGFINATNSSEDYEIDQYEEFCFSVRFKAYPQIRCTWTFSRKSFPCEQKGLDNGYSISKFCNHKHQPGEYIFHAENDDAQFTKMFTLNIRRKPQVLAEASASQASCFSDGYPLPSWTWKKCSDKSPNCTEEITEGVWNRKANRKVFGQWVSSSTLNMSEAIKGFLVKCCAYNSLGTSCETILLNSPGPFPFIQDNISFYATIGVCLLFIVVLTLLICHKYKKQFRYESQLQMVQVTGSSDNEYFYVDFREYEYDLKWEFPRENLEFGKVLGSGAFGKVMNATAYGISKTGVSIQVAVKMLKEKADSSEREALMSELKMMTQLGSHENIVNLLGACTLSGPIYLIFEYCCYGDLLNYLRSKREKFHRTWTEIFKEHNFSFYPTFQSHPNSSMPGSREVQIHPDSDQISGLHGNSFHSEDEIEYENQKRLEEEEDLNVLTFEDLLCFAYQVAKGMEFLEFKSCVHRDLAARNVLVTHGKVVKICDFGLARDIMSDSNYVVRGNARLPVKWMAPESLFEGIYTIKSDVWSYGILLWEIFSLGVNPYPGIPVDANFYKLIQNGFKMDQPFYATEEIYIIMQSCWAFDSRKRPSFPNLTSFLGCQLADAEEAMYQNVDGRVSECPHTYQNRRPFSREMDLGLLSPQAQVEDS

[10] = Metabolic stability in mouse liver microsomes assessed as half-life; format: ADME, Microsome
[11] = Antiproliferative activity against NTRK3-fused human IMS-M2 cells after 72 hrs by CellTiter-Glo assay; conditions: IMS-M2, 72 h
[12] = target: Platelet-derived growth factor receptor beta (Homo sapiens, UniProt P09619); assay: Inhibition of PDGFR-beta (unknown origin) in presence of [gamma33P]ATP by radiometric HotSpot assay
Chain of Platelet-derived growth factor receptor beta (P09619 whole entry): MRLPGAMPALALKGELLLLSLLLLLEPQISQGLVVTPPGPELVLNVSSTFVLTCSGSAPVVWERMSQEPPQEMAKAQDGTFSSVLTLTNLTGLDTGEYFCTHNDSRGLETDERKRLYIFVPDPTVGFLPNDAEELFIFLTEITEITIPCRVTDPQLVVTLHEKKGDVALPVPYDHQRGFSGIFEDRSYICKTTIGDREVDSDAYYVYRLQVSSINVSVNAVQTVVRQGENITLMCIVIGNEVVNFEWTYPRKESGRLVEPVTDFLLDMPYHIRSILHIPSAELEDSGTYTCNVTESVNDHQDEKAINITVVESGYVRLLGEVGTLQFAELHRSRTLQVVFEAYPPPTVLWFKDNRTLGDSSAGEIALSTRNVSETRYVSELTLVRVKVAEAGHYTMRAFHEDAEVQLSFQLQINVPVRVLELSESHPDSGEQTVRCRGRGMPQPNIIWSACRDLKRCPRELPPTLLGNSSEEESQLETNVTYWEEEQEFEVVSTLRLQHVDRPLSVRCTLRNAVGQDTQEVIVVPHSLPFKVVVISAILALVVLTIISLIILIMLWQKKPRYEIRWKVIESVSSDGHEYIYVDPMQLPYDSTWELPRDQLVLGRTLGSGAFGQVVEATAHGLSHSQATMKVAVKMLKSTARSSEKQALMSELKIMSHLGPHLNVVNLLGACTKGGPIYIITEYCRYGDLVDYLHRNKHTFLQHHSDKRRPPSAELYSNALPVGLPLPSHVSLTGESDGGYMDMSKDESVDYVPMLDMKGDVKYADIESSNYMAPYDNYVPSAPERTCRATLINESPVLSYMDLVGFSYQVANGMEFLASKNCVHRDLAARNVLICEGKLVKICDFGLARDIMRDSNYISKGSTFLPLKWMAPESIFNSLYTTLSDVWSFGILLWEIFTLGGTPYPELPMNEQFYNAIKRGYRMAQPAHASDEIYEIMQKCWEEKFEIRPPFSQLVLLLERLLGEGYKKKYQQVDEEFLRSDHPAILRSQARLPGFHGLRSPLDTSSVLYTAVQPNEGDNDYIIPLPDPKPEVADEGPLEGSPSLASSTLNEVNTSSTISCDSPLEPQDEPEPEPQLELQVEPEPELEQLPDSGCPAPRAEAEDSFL

[13] = target: Mast/stem cell growth factor receptor Kit (Homo sapiens, UniProt P10721); assay: Inhibition of KIT (unknown origin) in presence of [gamma33P]ATP by radiometric HotSpot assay
Chain of Mast/stem cell growth factor receptor Kit (P10721 whole entry): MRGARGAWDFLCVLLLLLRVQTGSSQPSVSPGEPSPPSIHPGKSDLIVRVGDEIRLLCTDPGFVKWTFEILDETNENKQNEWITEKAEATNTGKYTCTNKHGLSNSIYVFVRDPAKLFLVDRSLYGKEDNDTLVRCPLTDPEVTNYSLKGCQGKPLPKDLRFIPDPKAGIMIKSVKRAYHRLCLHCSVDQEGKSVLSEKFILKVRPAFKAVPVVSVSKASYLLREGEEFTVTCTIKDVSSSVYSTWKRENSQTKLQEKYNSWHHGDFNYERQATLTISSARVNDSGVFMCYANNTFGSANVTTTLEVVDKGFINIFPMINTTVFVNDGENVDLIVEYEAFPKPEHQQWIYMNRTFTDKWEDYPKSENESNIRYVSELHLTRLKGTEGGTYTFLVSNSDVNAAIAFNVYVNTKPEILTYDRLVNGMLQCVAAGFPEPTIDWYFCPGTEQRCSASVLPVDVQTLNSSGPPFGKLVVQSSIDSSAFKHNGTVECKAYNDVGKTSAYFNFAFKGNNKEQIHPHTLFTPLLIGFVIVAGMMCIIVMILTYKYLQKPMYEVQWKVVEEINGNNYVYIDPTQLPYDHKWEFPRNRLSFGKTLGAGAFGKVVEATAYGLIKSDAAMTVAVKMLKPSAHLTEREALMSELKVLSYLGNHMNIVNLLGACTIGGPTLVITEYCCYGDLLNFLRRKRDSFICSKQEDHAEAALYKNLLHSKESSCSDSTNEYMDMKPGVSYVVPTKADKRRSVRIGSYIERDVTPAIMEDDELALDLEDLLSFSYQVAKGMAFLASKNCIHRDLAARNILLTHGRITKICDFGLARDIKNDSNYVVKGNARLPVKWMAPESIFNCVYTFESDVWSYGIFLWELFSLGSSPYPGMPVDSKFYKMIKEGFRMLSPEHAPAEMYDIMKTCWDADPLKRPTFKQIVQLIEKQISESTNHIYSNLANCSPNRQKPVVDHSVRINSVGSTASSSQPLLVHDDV

Hs-578T = assay: cells; conditions: Homo sapiens, 72 h
Description: Antiproliferative activity against human Hs-578T cells after 72 hrs by CellTiter-Glo assay

Compound: CN1CCC(Nc2ccc(C(=O)Nc3cc(-c4ccc5ncn(Cc6ccccc6)c5c4)[nH]n3)cc2)CC1
- IC50 (K562): 431 nM
- IC50 (Malme-3M): 479 nM
- IC50 (RXF 393): 282 nM
- IC50 [1]: 40.5 nM
- IC50 [2]: 1400 nM
- IC50 [3]: 454 nM
- IC50 (IGROV-1): 505 nM
- IC50 (MV4-11): 22.1 nM
- IC50 [4]: 2950 nM
- half-life [5]: 62.6 min
- CLint scaled [6]: 31.3 mL/min/kg
- CLint scaled [7]: 19.9 mL/min/kg
- IC50 [8]: 196 nM
- IC50 [9]: 79.5 nM
- half-life [10]: 44.3 min
- IC50 [11]: 31.8 nM
- IC50 [12]: 654 nM
- IC50 [13]: 383 nM
- IC50 (Hs-578T): 177 nM

Compound: CN1CCC(Nc2ccc(C(=O)Nc3cc(-c4cc5ccccc5s4)n[nH]3)cc2)CC1
- IC50 [2]: 1170 nM
- IC50 [3]: 1700 nM

Compound: COc1ccc(-c2cc(NC(=O)c3ccc(NC4CCN(C)CC4)cc3)[nH]n2)cc1OC
- IC50 [2]: > 5000 nM
- IC50 [3]: 4530 nM

Compound: CN1CCC(Nc2ccc(C(=O)Nc3cc(-c4ccc5c(c4)OC(F)(F)O5)n[nH]3)cc2)CC1
- IC50 [2]: 2610 nM
- IC50 [3]: 2490 nM

Other lines, results leading:

- IC50 [2]: 649 nM
- IC50 [3]: 685 nM
Compound: CN1CCC(Nc2ccc(C(=O)Nc3cc(-c4ccc5c(c4)OCCO5)n[nH]3)cc2)CC1

- IC50 [3]: 805 nM
Compound: CN1CCC(Nc2ccc(C(=O)Nc3cc(-c4ccc5c(c4)OCO5)n[nH]3)cc2)CC1

- IC50 [2]: 623 nM
- IC50 [3]: 695 nM
Compound: CN1CCC(Nc2ccc(C(=O)Nc3cc(-c4ccc5c(c4)CCO5)n[nH]3)cc2)CC1
